For one assay, the target named is T1, cellular TGF-β R1 ALK5 (Homo sapiens, UniProt P36897).
T1 construct: host or cells: CellSensor SBE-bla HEK 293T
T1 sequence (P36897 34-503): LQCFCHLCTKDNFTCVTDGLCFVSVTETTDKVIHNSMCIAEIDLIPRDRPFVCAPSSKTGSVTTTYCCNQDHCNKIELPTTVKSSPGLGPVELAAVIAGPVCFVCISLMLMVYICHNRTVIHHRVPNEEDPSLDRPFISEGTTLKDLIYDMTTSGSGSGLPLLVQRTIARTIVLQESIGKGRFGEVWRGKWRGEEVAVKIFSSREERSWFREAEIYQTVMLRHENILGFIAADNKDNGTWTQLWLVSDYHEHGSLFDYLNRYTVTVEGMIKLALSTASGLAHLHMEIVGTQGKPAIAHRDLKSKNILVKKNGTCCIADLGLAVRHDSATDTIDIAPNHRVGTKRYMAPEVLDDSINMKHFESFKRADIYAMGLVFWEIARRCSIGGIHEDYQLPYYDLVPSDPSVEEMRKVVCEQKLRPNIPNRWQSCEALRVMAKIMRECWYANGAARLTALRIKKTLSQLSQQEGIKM
As to the kind of experiment: Cellular inhibition of ALK5 (CellSensor SBE-bla HEK 293T beta-lactamase reporter). It is filed as cell-based. The settings on record: cellular inhibition of ALK5, SBE-bla HEK 293T cells, TGFb-1 stimulated 5 hours; average where measured in multiple experiments. An excerpt: Test compounds were screened for cellular TGF-β R1 ALK5 inhibition by use of a CellSensor® SBE-bla HEK 293T (K1550, Invitrogen Corp. Madison, Wis.) cell line. The CellSensor® SBE-bla HEK 293T cell line contains a beta-lactamase reporter gene under control of the SBE response element stably integrated into HEK 293T cells. The SBE response element is a DNA region that binds activated SMADs which results from the binding of TGF-β to, and subsequent activation of ALK5.
The assay procedure was as follows:
CellSensor® SBE-bla HEK 293T cell line were plated at 12,000 cells/well in 40 ul DMEM plus 5 ug/ml blasticidin into 384-well, black-wall, clear-bottom assay plate and incubated overnight.
The following day 5 uL of 10×, 2.5-fold serially diluted test compounds in DMSO were added into cells to a final compound concentration of 1× and DMSO concentration of 0.5%. Assay was incubated for 1 hour at 37° C., 5% CO2, 5 uL of 100 ng/mL TGFb-1 was then added to activate ALK5 and incubated for 5 hours at 37° C., 5% CO2, 10 uL of detector, LiveBLAzer FRET B/G substrate (CCF4-AM, Invitrogen Corp. Madison, Wis.) was added to cells and incubated for 2 hours at RT. Assay was measured using Spectramax, a bottom-read fluorescence plate reader, at excitation setting of 405 nm and emission settings of 460 nm and 530 nm.
Response is defined as the ratio of background corrected 460 nm emission values/background corrected 530 nm emission values. Cellular activity was defined as percent inhibition of uninhibited ALK5 activity (wells treated with DMSO+TGF-β). The percent inhibition of cellular ALK5 at a given compound concentration is defined as: 100%×[1−(response compound+TGF-β/response DMSO+TGF-β)] where response compound+TGF-β is defined as the activity in the presence of test compound and response DMSO+TGF-β is defined as the uninhibited cellular ALK5 activity. The pIC50 value (negative log of the molar concentration of the compound that produces 50% inhibition) of a test compound is calculated by non-linear least squares curve fitting. pIC50 values, the negative of the log of the IC50, are calculated by non-linear curve fitting of the compound concentrations and percent of inhibition to the standard pIC50 equation.
Where inhibition was measured in multiple experiments the value in Table 2 is an average. N.T. means not tested.

The target of the next assay is T2, TGF-β R1 ALK5 (Homo sapiens, UniProt P36897).
T2 construct: purchased Invitrogen PV5837
T2 sequence (P36897 34-503): T1 sequence (P36897 34-503)
Put plainly: In vitro inhibition of ALK5 (LanthaScreen activity assay, TR-FRET). It is filed as biochemical. As to the method:
Test compounds were screened for TGF-β R1 ALK5 inhibition by use of a LanthaScreen™ activity assay (PV5837 Invitrogen, Invitrogen Corp. Madison, Wis.).
In brief, the assay procedure was as follows:
Solutions of test compounds were prepared in DMSO and diluted two-fold serially.
Assays were incubated for 90 minutes at room temperature and then quenched by the addition of 60 mM EDTA and 8 nM Terbium labeled anti-pSMAD3 Antibody (M4337 from Invitrogen) giving a final concentration of 15 mM EDTA and 2 nM Terbium labeled anti-pSMAD3 Antibody. Phosphorylated peptide product was quantified by measuring an increase in TR-FRET on a BMG LABTECH PHERA star plus. Response is defined as the ratio of Channel A/Channel B. The response of a blank (uninhibited) using vehicle alone is also determined. Enzyme activity was defined as the response of uninhibited enzyme activity minus the response of assays containing no enzyme. The percent inhibition of ALK5 at a given compound concentration is defined as: 100%×[1−(response compound/response blank)]
where response compound is defined as the enzyme activity in the presence of test compound and response blank is defined as the uninhibited enzyme activity. The pIC50 value (negative log of the molar concentration of the compound that produces 50% inhibition) of a test compound is calculated by non-linear least squares curve fitting of the equation: Percent Inhibition=100%/(1+(10−pIC50/10 log [I])).
Where inhibition was measured in multiple experiments the value in Table 1 is an average. N.T. means not tested.

From patent US9073918B2, “Pyrazolo[4,3-b]pyridine-7-amine inhibitors of ALK5” (Takeda Pharmaceutical Company Limited, priority 2010, dated 2015) come the findings set out here.

Take `COCCCn1cc2nccc(Nc3ccnc(-c4cc(Cl)ccc4F)c3)c2n1` [Example 34, N-(2-(5-chloro-2-fluorophenyl)pyridin-4-yl)-2-(3-methoxypropyl)-2H-pyrazolo[4,3-b]pyridin-7-amine]: the concentration for half-maximal inhibition (IC50) on cellular TGF-β R1 ALK5 and at TGF-β R1 ALK5 was 0.398 µM in each case.

Regarding `Fc1ccc(Cl)cc1-c1cc(Nc2ccnc3cnn(CC4CC4)c23)ccn1` [Example 36, N-(2-(5-chloro-2-fluorophenyl)pyridin-4-yl)-1-(cyclopropylmethyl)-1H-pyrazolo[4,3-b]pyridin-7-amine], the IC50 on cellular TGF-β R1 ALK5 and at TGF-β R1 ALK5 was 0.631 µM each time.

With `Fc1ccc(Cl)cc1-c1cc(Nc2ccnc3cn(CC4CC4)nc23)ccn1` [Example 37, N-(2-(5-chloro-2-fluorophenyl)pyridin-4-yl)-2-(cyclopropylmethyl)-2H-pyrazolo[4,3-b]pyridin-7-amine], the IC50 against cellular TGF-β R1 ALK5 was 0.398 µM; at TGF-β R1 ALK5, 0.0631 µM.

Consider `CN(C)C(=O)n1ncc2nccc(Nc3ccnc(-c4cc(Cl)ccc4F)c3)c21` [Example 39, 7-(2-(5-chloro-2-fluorophenyl)pyridin-4-ylamino)-N,N-dimethyl-1H-pyrazolo[4,3-b]pyridine-1-carboxamide], for which the values for the IC50 at cellular TGF-β R1 ALK5 and against TGF-β R1 ALK5 were 0.316 µM and 0.1 µM, respectively.

Turning to `NC(=O)Cn1cc2nccc(Nc3ccnc(-c4cc(Cl)ccc4F)c3)c2n1` [Example 43, 2-(7-(2-(5-chloro-2-fluorophenyl)pyridin-4-ylamino)-2H-pyrazolo[4,3-b]pyridin-2-yl)acetamide], the values for the IC50 against cellular TGF-β R1 ALK5 and against TGF-β R1 ALK5 were 0.1 µM and 0.00794 µM, respectively.

On to `OC[C@H](O)Cn1cc2nccc(Nc3ccnc(-c4cc(Cl)ccc4F)c3)c2n1` [Example 46, (R)-3-(7-(2-(5-chloro-2-fluorophenyl)pyridin-4-ylamino)-2H-pyrazolo[4,3-b]pyridin-2-yl)propane-1,2-diol], for which the IC50 against cellular TGF-β R1 ALK5 is 0.316 µM; against TGF-β R1 ALK5, 0.0631 µM.

On to `Cn1cc2nccc(Nc3ccnc(-c4cccc(Cl)c4)c3)c2n1` [Example 48, N-(2-(3-chlorophenyl)pyridin-4-yl)-2-methyl-2H-pyrazolo[4,3-b]pyridin-7-amine], for which the IC50 at cellular TGF-β R1 ALK5 and against TGF-β R1 ALK5 was 0.2 µM in each case.

Regarding `Cc1cnc(-c2cc(Cl)ccc2F)cc1Nc1ccnc2cn[nH]c12` [Example 49, N-(2-(5-chloro-2-fluorophenyl)-5-methylpyridin-4-yl)-1H-pyrazolo[4,3-b]pyridin-7-amine], the IC50 against cellular TGF-β R1 ALK5 and on TGF-β R1 ALK5 was 0.0316 µM in each case.

For the compound `Cc1cnc(-c2cc(Cl)ccc2F)cc1Nc1ccnc2cn(CC(N)=O)nc12` [Example 50, 2-(7-(2-(5-chloro-2-fluorophenyl)-5-methylpyridin-4-ylamino)-2H-pyrazolo[4,3-b]pyridin-2-yl)acetamide], the values for the IC50 on cellular TGF-β R1 ALK5 and against TGF-β R1 ALK5 were 0.0126 µM and 0.0158 µM, respectively.

`Cc1cnc(-c2cc(Cl)ccc2F)cc1Nc1ccnc2cnn(CC(N)=O)c12` [Example 51, 2-(7-(2-(5-chloro-2-fluorophenyl)-5-methylpyridin-4-ylamino)-1H-pyrazolo[4,3-b]pyridin-1-yl)acetamide]: the IC50 is 0.02 µM on cellular TGF-β R1 ALK5 and 0.0126 µM against TGF-β R1 ALK5.

With `CNC(=O)n1ncc2nccc(Nc3cc(-c4cc(Cl)ccc4F)ncc3C)c21` [Example 52, 7-(2-(5-chloro-2-fluorophenyl)-5-methylpyridin-4-ylamino)-N-methyl-1H-pyrazolo[4,3-b]pyridine-1-carboxamide], the concentration for half-maximal inhibition (IC50) against cellular TGF-β R1 ALK5 and against TGF-β R1 ALK5 was 0.0316 µM each time.

Regarding `CCNC(=O)n1ncc2nccc(Nc3cc(-c4cc(Cl)ccc4F)ncc3C)c21` [Example 53, 7-(2-(5-chloro-2-fluorophenyl)-5-methylpyridin-4-ylamino)-N-ethyl-1H-pyrazolo[4,3-b]pyridine-1-carboxamide], the values for the IC50 against cellular TGF-β R1 ALK5 and on TGF-β R1 ALK5 were 0.0501 µM and 0.0316 µM, respectively.

Consider `Cc1cnc(-c2cc(Cl)ccc2F)cc1Nc1ccnc2cnn(C(=O)NC(C)C)c12` [Example 54, 7-(2-(5-chloro-2-fluorophenyl)-5-methylpyridin-4-ylamino)-N-isopropyl-1H-pyrazolo[4,3-b]pyridine-1-carboxamide], for which the results for the IC50 against cellular TGF-β R1 ALK5 and against TGF-β R1 ALK5 were 0.1 µM and 0.0631 µM, respectively.

For the compound `Cc1cnc(-c2cc(Cl)ccc2F)cc1Nc1ccnc2cn(C(C)(C)C(N)=O)nc12` [Example 55, 2-(7-(2-(5-chloro-2-fluorophenyl)-5-methylpyridin-4-ylamino)-2H-pyrazolo[4,3-b]pyridin-2-yl)-2-methylpropanamide], the IC50 at cellular TGF-β R1 ALK5 was 0.631 µM; on TGF-β R1 ALK5, 0.0794 µM.

As to `CNC(=O)n1ncc2nccc(Nc3cc(C)nc(-c4cc(Cl)ccc4F)c3)c21` [Example 58, 7-(2-(5-chloro-2-fluorophenyl)-6-methylpyridin-4-ylamino)-N-methyl-1H-pyrazolo[4,3-b]pyridine-1-carboxamide], the IC50 is 0.126 µM at cellular TGF-β R1 ALK5 and 0.0794 µM on TGF-β R1 ALK5.

As for `Cc1cc(Nc2ccnc3cnn(CC(N)=O)c23)cc(-c2cc(Cl)ccc2F)n1` [Example 60A, 2-(7-(2-(5-chloro-2-fluorophenyl)-6-methylpyridin-4-ylamino)-1H-pyrazolo[4,3-b]pyridin-1-yl)acetamide], the figures for the IC50 against cellular TGF-β R1 ALK5 and against TGF-β R1 ALK5 were 0.501 µM and 0.0316 µM, respectively.

With `CNC(=O)n1ncc2nccc(Nc3ccnc(-c4cc(Cl)c(F)cc4F)c3)c21` [Example 63, 7-(2-(5-chloro-2,4-difluorophenyl)pyridin-4-ylamino)-N-methyl-1H-pyrazolo[4,3-b]pyridine-1-carboxamide], the IC50 on cellular TGF-β R1 ALK5 was 0.398 µM; against TGF-β R1 ALK5, 0.0316 µM.

In the case of `Cc1ccc(F)c(-c2cc(Nc3ccnc4cnn(C)c34)ccn2)n1` [Example 65, N-(3′-fluoro-6′-methyl-2,2′-bipyridin-4-yl)-1-methyl-1H-pyrazolo[4,3-b]pyridin-7-amine], the figures for the half-inhibitory concentration (IC50) against cellular TGF-β R1 ALK5 and at TGF-β R1 ALK5 were 0.126 µM and 0.1 µM, respectively.

For `Cc1ccc(F)c(-c2cc(Nc3ccnc4cn(C)nc34)ccn2)n1` [Example 66, N-(3′-fluoro-6′-methyl-2,2′-bipyridin-4-yl)-2-methyl-2H-pyrazolo[4,3-b]pyridin-7-amine], the IC50 on cellular TGF-β R1 ALK5 and on TGF-β R1 ALK5 was 0.0398 µM in each case.

Turning to `Cc1ccc(F)c(-c2cc(Nc3ccnc4cnn(C(C)C)c34)ccn2)n1` [Example 67, N-(3′-fluoro-6′-methyl-2,2′-bipyridin-4-yl)-1-isopropyl-1H-pyrazolo[4,3-b]pyridin-7-amine], the IC50 on cellular TGF-β R1 ALK5 and against TGF-β R1 ALK5 was 0.126 µM in each case.

Consider `Cc1ccc(F)c(-c2cc(Nc3ccnc4cn(C(C)C)nc34)ccn2)n1` [Example 68, N-(3′-fluoro-6′-methyl-2,2′-bipyridin-4-yl)-2-isopropyl-2H-pyrazolo[4,3-b]pyridin-7-amine], for which the IC50 against cellular TGF-β R1 ALK5 and at TGF-β R1 ALK5 was 1.26 µM each time.
